The source of these data is patent publication US6300112A, “β-xylosidase, nucleotide sequence encoding it, and use thereof” (Danisco Ingredients A.S (Danisco A/S), priority 1995, dated 2001).

Test [1] deals with T1, Aspergillus niger β-xylosidase II (X-II, xylD), SEQ ID NO. 1 (Aspergillus niger, UniProt O00089).
T1 construct: Mono Q peak II
Kind of test: Inhibition of β-xylosidase X-II by xylose. The settings on record: β-xylosidase X-II of the invention; read-out: inhibition Ki (mM xylosc). The test is classed as biochemical. As for the experimental part:
(§1) Table A summarises the specificity pattern of two β-xylosidases X-I and X-II of the invention--presumably differing only in their glycosylation pattern, not in their amino acid sequence--and of the β-xylosidase reported by Rodionova et al., and their inhibition by xylose.
(§2) DEAE-Sephadex A-50 was equilibrated in 50 mM sodium acetate buffer pH 5.0 and was added to the culture filtrate. After 30-60 minutes of stirring at 4° C., the DEAE-Sephadex together with the culture filtrate were passed through a funnel with a glass filter holder and the DEAE-Sephadex A-50 was transferred to a column. […] Fractions containing β-xylosidase activity, as was detected using the chromogenic substrate 4-methylumbelliferyl-β-D-xyloside (detects β-xylosidases and endo-xylanases) (Sigma #M7008), were pooled and desalted by dialysis against Millipore water and subsequently dialysed against 20 mM piperazine-HCl buffer pH 5.0. […] The specific activity of both β-xylosidase I and II towards the artificial substrate PNP-X was determined as described by Rodionova et al., 1983, to be respectively 60.2 and 60.9 U/mg protein. In addition the activity against PNP-β-D-glucopyranoside (Sigma #N7006) was determined to be 0.2 and 0.3 U/mg, against PNP-β-D-galactopyranoside (Sigma #N1252) 0.0 and 0.0 U/mg and against PNP-β-L-arabinofuranoside(Sigma #N3641) 2.8 and 3.4 U/mg respectively for β-xylosidase I and II.

Test [2] has as its target Aspergillus niger β-xylosidase according to Rodionova et al. (1983). Conditions: β-xyl (Rodionova), comparison enzyme; read-out: inhibition Ki (mM xylosc); cited from earlier work.
The target of test [3] is T2, Aspergillus niger β-xylosidase I (X-I, xylD), SEQ ID NO. 1 (Aspergillus niger, UniProt O00089).
T2 construct: Mono Q peak I
Kind of test: Inhibition of β-xylosidase X-I by xylose. The format is biochemical. Conditions: β-xylosidase X-I of the invention; read-out: inhibition Ki (mM xylosc). As for the experimental part:
as §1, §2

T1 sequence (O00089 27-804): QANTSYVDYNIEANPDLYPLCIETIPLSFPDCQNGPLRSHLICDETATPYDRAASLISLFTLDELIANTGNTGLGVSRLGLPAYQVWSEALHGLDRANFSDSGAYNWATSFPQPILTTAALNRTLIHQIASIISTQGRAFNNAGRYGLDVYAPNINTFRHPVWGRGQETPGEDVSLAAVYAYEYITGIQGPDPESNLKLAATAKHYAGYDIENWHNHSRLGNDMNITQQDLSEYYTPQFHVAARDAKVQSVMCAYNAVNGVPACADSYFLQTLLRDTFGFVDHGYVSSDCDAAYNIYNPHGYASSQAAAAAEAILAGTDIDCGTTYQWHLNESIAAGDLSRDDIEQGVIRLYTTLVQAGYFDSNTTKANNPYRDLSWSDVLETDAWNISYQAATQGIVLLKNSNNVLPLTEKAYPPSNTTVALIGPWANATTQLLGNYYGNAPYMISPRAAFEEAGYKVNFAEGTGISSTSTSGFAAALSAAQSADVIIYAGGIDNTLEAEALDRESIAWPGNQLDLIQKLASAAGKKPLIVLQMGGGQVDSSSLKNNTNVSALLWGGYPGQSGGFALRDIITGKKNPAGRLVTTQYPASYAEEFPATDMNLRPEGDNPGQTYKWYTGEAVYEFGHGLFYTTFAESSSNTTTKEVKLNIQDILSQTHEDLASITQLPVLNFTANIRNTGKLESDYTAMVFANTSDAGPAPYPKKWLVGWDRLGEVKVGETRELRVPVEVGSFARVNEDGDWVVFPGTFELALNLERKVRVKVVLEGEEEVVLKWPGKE
T2 sequence (O00089 27-804): as above

On to xylose, for which the Ki in test [1] is 13.2 mM; in test [2] it was 2.9 mM; in test [3], 9.8 mM.
